# Tests used:
# Format in all cases: functional
# COLO 205 [1] = assay: Cytotoxicity against human COLO205 cells assessed as cell growth at 10^-7 M after 48 hrs by SRB assay; details: COLO 205, 48 h, read-out: Activity
# MOLT-4 = assay: Cytotoxicity against human MOLT4 cells assessed as cell growth at 10^-6 M after 48 hrs by SRB assay; details: MOLT-4, 48 h, read-out: Activity
# SK-MEL-5 = assay: Cytotoxicity against human SK-MEL-5 cells after 48 hrs by SRB assay; details: SK-MEL-5, 48 h
# OVCAR-8 [2] = assay: Cytotoxicity against human OVCAR8 cells assessed as cell growth at 10^-6 M after 48 hrs by SRB assay; details: OVCAR-8, 48 h, read-out: Activity
# [3] = Cytotoxicity against human NCI-ADR-RES cells assessed as cell growth at 10^-8 M after 48 hrs by SRB assay; details: read-out: Activity
# [4] = Cytotoxicity against human NCI-ADR-RES cells assessed as cell growth at 10^-7 M after 48 hrs by SRB assay; details: read-out: Activity
# HCT-15 [5] = assay: Cytotoxicity against human HCT15 cells assessed as cell growth at 10^-6 M after 48 hrs by SRB assay; details: HCT-15, 48 h, read-out: Activity
# HT-29 [6] = assay: Cytotoxicity against human HT-29 cells assessed as cell growth at 10^-7 M after 48 hrs by SRB assay; details: HT-29, 48 h, read-out: Activity
# SK-MEL-2 = assay: Cytotoxicity against human SK-MEL-2 cells assessed as cell growth at 10^-6 M after 48 hrs by SRB assay; details: SK-MEL-2, 48 h, read-out: Activity
# UACC-62 = assay: Cytotoxicity against human UACC62 cells after 48 hrs by SRB assay; details: UACC-62, 48 h
# [7] = Cytotoxicity against human Hs578T cells assessed as cell growth at 10^-4 M after 48 hrs by SRB assay; details: Hs-578T, read-out: Activity
# [8] = Cytotoxicity against human UO31 cells assessed as cell growth at 10^-8 M after 48 hrs by SRB assay; details: UO-31, 48 h, read-out: Activity
# MDA-MB-468 = assay: Cytotoxicity against human MDA-MB-468 cells assessed as cell growth at 10^-4 M after 48 hrs by SRB assay; details: MDA-MB-468, 48 h, read-out: Activity
# HOP-62 = assay: Cytotoxicity against human HOP62 cells assessed as cell growth at 10^-7 M after 48 hrs by SRB assay; details: HOP-62, 48 h, read-out: Activity
# RPMI-8226 = assay: Cytotoxicity against human RPMI8226 cells after 48 hrs by SRB assay; details: RPMI-8226, 48 h
# MDA-MB-231 = assay: Cytotoxicity against human MDA-MB-231 cells after 48 hrs by SRB assay; details: MDA-MB-231, 48 h
# M14 = assay: Cytotoxicity against human M14 cells assessed as cell growth at 10^-6 M after 48 hrs by SRB assay; details: M14, 48 h, read-out: Activity
# OVCAR-8 [9] = assay: Cytotoxicity against human OVCAR8 cells assessed as cell growth at 10^-7 M after 48 hrs by SRB assay; details: OVCAR-8, 48 h, read-out: Activity
# NCI-H522 [10] = assay: Cytotoxicity against human NCI-H522 cells assessed as cell growth at 10^-4 M after 48 hrs by SRB assay; details: NCI-H522, 48 h, read-out: Activity
# [11] = Cytotoxicity against human OVCAR5 cells assessed as cell growth at 10^-4 M after 48 hrs by SRB assay; details: OVCAR-5, 48 h, read-out: Activity
# KM12 = assay: Cytotoxicity against human KM12 cells after 48 hrs by SRB assay; details: KM12, 48 h
# NCI-H522 [12] = assay: Cytotoxicity against human NCI-H522 cells assessed as cell growth at 10^-6 M after 48 hrs by SRB assay; details: NCI-H522, 48 h, read-out: Activity
# NCI-H226 = assay: Cytotoxicity against human NCI-H226 cells assessed as cell growth at 10^-6 M after 48 hrs by SRB assay; details: NCI-H226, 48 h, read-out: Activity
# SW-620 [13] = assay: Cytotoxicity against human SW620 cells after 48 hrs by SRB assay; details: SW-620, 48 h
# MDA-MB-435 = assay: Cytotoxicity against human MDA-MB-435 cells assessed as cell growth at 10^-7 M after 48 hrs by SRB assay; details: MDA-MB-435, 48 h, read-out: Activity
# OVCAR-8 [14] = assay: Cytotoxicity against human OVCAR8 cells after 48 hrs by SRB assay; details: OVCAR-8, 48 h
# COLO 205 [15] = assay: Cytotoxicity against human COLO205 cells assessed as cell growth at 10^-6 M after 48 hrs by SRB assay; details: COLO 205, 48 h, read-out: Activity
# RXF 393 = assay: Cytotoxicity against human RXF393 cells assessed as cell growth at 10^-4 M after 48 hrs by SRB assay; details: RXF 393, 48 h, read-out: Activity
# DU-145 = assay: Cytotoxicity against human DU145 cells assessed as cell growth at 10^-7 M after 48 hrs by SRB assay; details: DU-145, 48 h, read-out: Activity
# Malme-3M = assay: Cytotoxicity against human MALME-3M cells assessed as cell growth at 10^-4 M after 48 hrs by SRB assay; details: read-out: Activity
# T47D = assay: Cytotoxicity against human T47D cells assessed as growth inhibition at 10 uM after 48 hrs by SRB assay; details: read-out: GI
# SF-268 = assay: Cytotoxicity against human SF268 cells assessed as cell growth at 10^-4 M after 48 hrs by SRB assay; details: SF-268, 48 h, read-out: Activity
# SW-620 [16] = assay: Cytotoxicity against human SW620 cells assessed as cell growth at 10^-4 M after 48 hrs by SRB assay; details: SW-620, 48 h, read-out: Activity
# SNB-19 = assay: Cytotoxicity against human SNB19 cells assessed as cell growth at 10^-4 M after 48 hrs by SRB assay; details: SNB-19, 48 h, read-out: Activity
# HCT-15 [17] = assay: Cytotoxicity against human HCT15 cells assessed as cell growth at 10^-8 M after 48 hrs by SRB assay; details: HCT-15, 48 h, read-out: Activity
# LOX IMVI = assay: Cytotoxicity against human LOXIMVI cells assessed as cell growth at 10^-8 M after 48 hrs by SRB assay; details: read-out: Activity
# PC-3 = assay: Cytotoxicity against human PC3 cells assessed as cell growth at 10^-6 M after 48 hrs by SRB assay; details: PC-3, 48 h, read-out: Activity
# HT-29 [18] = assay: Cytotoxicity against human HT-29 cells assessed as cell growth at 10^-8 M after 48 hrs by SRB assay; details: HT-29, 48 h, read-out: Activity
# [19] = Cytotoxicity against human UO31 cells assessed as cell growth at 10^-4 M after 48 hrs by SRB assay; details: UO-31, 48 h, read-out: Activity
smiles,measurement,setting,value
C=CCn1c(C)nc2ccc(Nc3nc(Nc4ccc(F)cc4)nc4ccccc34)cc21,growth at 0.1 µM,COLO 205 [1],103%
same,growth at 1 µM,MOLT-4,73%
same,GI50,SK-MEL-5,1.36 µM
same,LC50,SK-MEL-5,5.14 µM
same,TGI,SK-MEL-5,2.64 µM
same,growth at 1 µM,OVCAR-8 [2],93%
same,growth at 0.01 µM,[3],100%
same,growth at 0.1 µM,[4],97%
same,growth at 1 µM,HCT-15 [5],91%
same,growth at 0.1 µM,HT-29 [6],101%
same,growth at 1 µM,SK-MEL-2,96%
same,GI50,UACC-62,1.8 µM
same,TGI,UACC-62,3.7 µM
same,CC50,UACC-62; read-out: LC50 (the source's name),7.59 µM
same,growth at 100 µM,[7],-16%
same,growth at 0.01 µM,[8],87%
same,growth at 100 µM,MDA-MB-468,-37%
same,growth at 0.1 µM,HOP-62,100%
same,GI50,RPMI-8226,1.85 µM
same,LC50,RPMI-8226,> 100 µM
same,TGI,RPMI-8226,4.57 µM
same,GI50,MDA-MB-231,2.37 µM
same,LC50,MDA-MB-231,> 100 µM
same,TGI,MDA-MB-231,8.24 µM
same,growth at 1 µM,M14,94%
same,growth at 0.1 µM,OVCAR-8 [9],94%
same,growth at 100 µM,NCI-H522 [10],-58%
same,growth at 100 µM,[11],-80%
same,GI50,KM12,4.07 µM
same,LC50 (concentration killing 50% of cells),KM12,51.8 µM
same,TGI,KM12,16.4 µM
same,growth at 1 µM,NCI-H522 [12],91%
same,growth at 1 µM,NCI-H226,87%
same,GI50,SW-620 [13],2.8 µM
same,LC50 (concentration killing 50% of cells),SW-620 [13],> 100 µM
same,TGI,SW-620 [13],10.7 µM
same,growth at 0.1 µM,MDA-MB-435,100%
same,GI50,OVCAR-8 [14],3.05 µM
same,LC50,OVCAR-8 [14],> 100 µM
same,TGI,OVCAR-8 [14],13.6 µM
same,growth at 1 µM,COLO 205 [15],95%
same,growth at 100 µM,RXF 393,-56%
same,growth at 0.1 µM,DU-145,98%
same,growth at 100 µM,Malme-3M,-51%
same,inhibition of growth at 10 µM,T47D,50%
same,growth at 100 µM,SF-268,-59%
same,growth at 100 µM,SW-620 [16],-48%
same,growth at 100 µM,SNB-19,-80%
same,growth at 0.01 µM,HCT-15 [17],99%
same,growth at 0.01 µM,LOX IMVI,97%
same,growth at 1 µM,PC-3,84%
same,growth at 0.01 µM,HT-29 [18],100%
same,growth at 100 µM,[19],-82%

# Source: ChEMBL document CHEMBL3112450, “Synthesis and in vitro antitumor evaluation of primary amine substituted quinazoline linked benzimidazole” (Bioorg Med Chem Lett, 2014)
